Measurements: patent US12162845B1, “3-(4-bromophenyl)-5-((2-isopropyl-5-methylphenoxy)methyl)-1,2,4-oxadiazole as an anti-cancer and antimicrobial compound” (KING FAISAL UNIVERSITY, priority 2023, dated 2024)

Experiments:
Assay type in all cases: cell-based
different microbes = assay: Antimicrobial activity, agar plate disc-diffusion (overall statement); details: against different microbes, result in words
Method: (§1) The agar plate disc-diffusion method was applied. Sterilized filter papers (6 mm in diameter) were wetted with 10 μL of a solution of 3-(4-bromophenyl)-5-((2-isopropyl-5-methylphenoxy)methyl)-1,2,4-oxadiazole (3) to be tested, containing 10 mg/mL in DMSO, and the discs were allowed to air dry. The discs were then placed onto the surface of agar plates (nutrient agar for bacteria and Sabouraud's dextrose agar for fungi) seeded with the test organism. Each plate contained 15 mL of the agar medium, previously seeded with 0.2 mL of the broth culture of each organism pregrown for 18 hours. The plates were incubated at 37° C. for 48 h, and 72 h for fungi. The inhibition zones were measured in mm. Discs impregnated with DMSO were used as a control, and its inhibition zone was subtracted from the tested compound actual inhibition zone.

Aspergillus flavus = assay: Agar plate disc-diffusion, antifungal inhibition zone
Method: as §1, with “Sterilized filter papers (6 mm in diameter) were wetted with 10 μL of a solution of 3-(4-bromophenyl)-5-((2-isopropyl-5-methylphenoxy)methyl)-1,2,4-oxadiazole (3) to be tested, containing 10 mg/mL in DMSO, and the discs were allowed to air dry.” left out

[1] = tested on: Chrysosporium keratinophilum; assay: as above
Method: as §1, with “Sterilized filter papers (6 mm in diameter) were wetted with 10 μL of a solution of 3-(4-bromophenyl)-5-((2-isopropyl-5-methylphenoxy)methyl)-1,2,4-oxadiazole (3) to be tested, containing 10 mg/mL in DMSO, and the discs were allowed to air dry.” left out

Escherichia coli = assay: Agar plate disc-diffusion, antibacterial inhibition zone
Method: as §1, with “Sterilized filter papers (6 mm in diameter) were wetted with 10 μL of a solution of 3-(4-bromophenyl)-5-((2-isopropyl-5-methylphenoxy)methyl)-1,2,4-oxadiazole (3) to be tested, containing 10 mg/mL in DMSO, and the discs were allowed to air dry.” left out

Pseudomonas aeruginosa = assay: as above
Method: as §1, with “Sterilized filter papers (6 mm in diameter) were wetted with 10 μL of a solution of 3-(4-bromophenyl)-5-((2-isopropyl-5-methylphenoxy)methyl)-1,2,4-oxadiazole (3) to be tested, containing 10 mg/mL in DMSO, and the discs were allowed to air dry.” left out

Staphylococcus aureus = assay: as above
Method: as §1, with “Sterilized filter papers (6 mm in diameter) were wetted with 10 μL of a solution of 3-(4-bromophenyl)-5-((2-isopropyl-5-methylphenoxy)methyl)-1,2,4-oxadiazole (3) to be tested, containing 10 mg/mL in DMSO, and the discs were allowed to air dry.” left out

Bacillus Cereus = assay: as above
Method: as §1, with “Sterilized filter papers (6 mm in diameter) were wetted with 10 μL of a solution of 3-(4-bromophenyl)-5-((2-isopropyl-5-methylphenoxy)methyl)-1,2,4-oxadiazole (3) to be tested, containing 10 mg/mL in DMSO, and the discs were allowed to air dry.” left out

[2] = tested on: human prostate cancer cells (PC3); assay: Cytotoxicity by SRB assay; details: 0.01 μM to 100 μM for 72 h, result in words
Text: (§2) The anticancer activity of the described synthesized compounds against highly aggressive androgen-independent metastatic human prostate cancer cells (PC3) and osteosarcoma (MG-63) cells. The human prostate cancer cells (PC3) and human osteosarcoma cells (MG-63) were obtained from Nawah Scientific Inc. (Mokatam, Cairo, Egypt) and cultured in DMEM (Dulbecco's modified eagle's medium), Gibco, USA, supplemented with fetal bovine serum (FBS) at a concentration of 10% and 100 U/mL of penicillin and streptomycin (PS). The Cells were incubated at 37° C. in a humidified environment that contained 5% CO2.
(§3) Cells were seeded in 96-well plates as aliquots of 100 μL cell suspension and incubated in a complete media for 24 h. afterward, cells were treated with 3-(4-bromophenyl)-5-((2-isopropyl-5-methylphenoxy)methyl)-1,2,4-oxadiazole at diverse concentrations ranging from 0.01 μM to 100 μM for 72 h. Then, cells were fixed at 4° C. for one hour with 150 μL of 10% trichloroacetic acid (TCA). […] Then, 150 μL of Tris pH 10.5 (10 mM) was added, and the absorbance was measured at 540 nm using a BMG LABTECH®-FLUOstar Omega microplate reader (Ortenberg, Germany). Half maximal inhibitory concentrations (IC50) values were calculated for each experiment using GraphPad Prism 6 software. […]
(§4) The inhibition was calculated using the following equation: Inhibition %=100−Average Viability

[3] = tested on: human osteosarcoma cells (MG-63); assay: Cytotoxicity by SRB assay; details: MG-63 cells, 0.01 μM to 100 μM for 72 h, result in words
Text: as §2, §3, §4

[4] = A = concentration of comp. = 10,000 μL
[5] = B = concentration of comp. = 30,000 μL
[6] = C = concentration of comp. = 50,000 μL

In the case of `Cc1ccc(C(C)C)c(OCc2nc(-c3ccc(Br)cc3)no2)c1` [compound 3, 3-(4-bromophenyl)-5-((2-isopropyl-5-methylphenoxy)methyl)-1,2,4-oxadiazole], the antimicrobial activity (different microbes) is reported as “excellent antimicrobial activities”, the inhibition zone (Aspergillus flavus; [4]) is reported as 17 mm and the inhibition zone (Aspergillus flavus; [5]) is reported as 20 mm. It also gave an inhibition zone (Aspergillus flavus; [6]) of 29 mm, an inhibition zone [1, 4] of 26 mm and an inhibition zone [1, 5] of 28 mm. The inhibition zone [1, 6] was 48 mm, the inhibition zone (Escherichia coli; [4]) was 28 mm and the inhibition zone (Escherichia coli; [5]) was 37 mm. For the same compound, the inhibition zone (Escherichia coli; [6]) was 55 mm, the inhibition zone (Pseudomonas aeruginosa; [4]) was 24 mm and the inhibition zone (Pseudomonas aeruginosa; [5]) was 27 mm. It also gave an inhibition zone (Pseudomonas aeruginosa; [6]) of 39 mm, an inhibition zone (Staphylococcus aureus; [4]) of 13 mm and an inhibition zone (Staphylococcus aureus; [5]) of 17 mm. The inhibition zone (Staphylococcus aureus; [6]) was 21 mm, the inhibition zone (Bacillus Cereus; [4]) was 25 mm and the inhibition zone (Bacillus Cereus; [5]) was 27 mm. It also gave an inhibition zone (Bacillus Cereus; [6]) of 42 mm.
`Cc1ccc(C(C)C)c(OCc2nc(-c3ccc(Br)cc3)no2)c1` [3-(4-bromophenyl)-5-((2-isopropyl-5-methylphenoxy)methyl)-1,2,4-oxadiazole] was tested, and the antiproliferative activity [2] was “excellent antiproliferative activities” and the antiproliferative activity [3] was “excellent antiproliferative activities”.
`O=C(O)c1cn(C2CC2)c2cc(N3CCNCC3)c(F)cc2c1=O` [Cip., ciprofloxacin, reference compound] showed an inhibition zone (Aspergillus flavus; [4]) of 29 mm, an inhibition zone (Aspergillus flavus; [5]) of 30 mm and an inhibition zone (Aspergillus flavus; [6]) of 42 mm. For the same compound, the inhibition zone [1, 4] was 29 mm, the inhibition zone [1, 5] was 30 mm and the inhibition zone [1, 6] was 53 mm. The inhibition zone (Escherichia coli; [4]) was 30 mm, the inhibition zone (Escherichia coli; [5]) was 39 mm and the inhibition zone (Escherichia coli; [6]) was 60 mm. The inhibition zone (Pseudomonas aeruginosa; [4]) was 29 mm, the inhibition zone (Pseudomonas aeruginosa; [5]) was 30 mm and the inhibition zone (Pseudomonas aeruginosa; [6]) was 53 mm. For the same compound, the inhibition zone (Staphylococcus aureus; [4]) was 43 mm, the inhibition zone (Staphylococcus aureus; [5]) was 44 mm and the inhibition zone (Staphylococcus aureus; [6]) was 53 mm. The inhibition zone (Bacillus Cereus; [4]) was 29 mm, the inhibition zone (Bacillus Cereus; [5]) was 30 mm and the inhibition zone (Bacillus Cereus; [6]) was 42 mm.
